Holding throughout (assay type): subcellular
Test [1] has as its system Liposome. Nature of the test: The compound was evaluated for percent incorporation in DOPC vesicles, when compound to lipid mol ratio is 0.1.
The subject of test [2] is Liposome. Nature of the test: The compound was evaluated for percent incorporation in DOPC vesicles, when compound to lipid mol ratio is 2.
In test [3] the test system is Liposome. Nature of the test: The compound was evaluated for percent incorporation in DOPC vesicles, when compound to lipid mol ratio is 3.5.

SMILES strings stand for the structures.

Consider `CSc1ccc(/C=C2/C(C)=C(CC(=O)O)c3cc(F)ccc32)cc1`, for which the values for the Incorporation in the test with Liposome [1], in the test on Liposome [2] and in the test on Liposome [3] were 74%, 41% and 25%, respectively.

`CC1=C(CC(=O)O)c2cc(F)ccc2/C1=C\c1ccc([S+](C)[O-])cc1` (stereo not given): the values for the Incorporation in the test with Liposome [1] and with Liposome [2] were 7% and 5%, respectively.

These data come from ChEMBL document CHEMBL1121908, “Membrane effects of antiinflammatory agents. 1. Interaction of sulindac and its metabolites with phospholipid membrane, a magnetic resonance study” (J Med Chem, 1981).
